From US20240279227A1, “FUSED HETEROCYCLIC DERIVATIVES” (Janssen Sciences Ireland Unlimited Company, priority 2021, published 2024)

Columns and labels:
[1] = Human liver microsome stability; format: in vitro ADME; conditions: 1 μM compound, NADPH 1 mM, pH 7.4, 37° C., 0-60 min; for half-life at 1 μM: human, pooled human liver microsomes, pH 7.4, pooled human liver microsomes 0.5 mg/mL, read-out: HLM Metabolism t1/2
Method: Pooled human liver microsomes (0.5 mg/mL) was pre-incubated with 1 μM test compounds or control compounds (verapamil, warfarin and cerivastatin) in 0.1 M phosphate buffer pH 7.4 containing 1 mM MgCl2 at 37° C. The final concentration of DMSO and acetonitrile are 0.05% and 0.2%, respectively. All incubations are performed singularly for each compound. NADPH was added to initiate the reaction with the final concentration of 1 mM and the final incubation volume of 400 μL.
At 6 time points (0, 5, 10, 20, 40 and 60 min) reactions were stopped by the removal of 50 μL of the incubation mixture into plates containing acetonitrile at a of 1:3 (v:v). The plates were centrifuged at 3000 rpm for 10 min at 4° C. to precipitate the protein. Following protein precipitation, the sample supernatants were combined in cassettes of up to 8 compounds. The internal standard was added (1:1 supernatant to internal standard solution) and samples were analyzed using standard LC-MS conditions.
From a plot of ln peak area ratio (compound peak area/internal standard peak area) against time, the gradient of the line is determined. Subsequently, half-life is calculated using the equations below: […]

HBV = assay: Anti-HBV activity in HepG2.117 cell line (intracellular HBV DNA, real-time PCR); format: cell-based, hepatitis B virus; conditions: HepG2.117 cells, HBV replication induced, 3 days of treatment, intracellular HBV DNA by real-time PCR
Method: The anti HBV activity was measured using the HepG2.117 cell line, a stable, inducibly HBV producing cell line, which replicates HBV in the absence of doxycycline (Tet-off system). The HepG2 cell line is available from ATCCR under number HB-8065. Transfection of the HepG2 cell line can be as described in Sun and Nassal 2006 Journal of Hepatology 45 (2006) 636-645 “Stable HepG2-and Huh7-based human hepatoma cell lines for efficient regulated expression of infectious hepatitis B virus”.
For the antiviral assay, HBV replication was induced, followed by a treatment with serially diluted compound in 96-well plates. After 3 days of treatment, the antiviral activity was determined by quantification of intracellular HBV DNA using real-time PCR and an HBV specific primer set and probe.

[2] = Cytotoxicity, ATPlite Luminescence Assay; format: cell-based, human; conditions: human, HepG2 or HepG2.117 cells, 3-days incubation unless marked with *, ATPlite viability
Method: Cytotoxicity of the compounds was tested using HepG2 or HepG2.117 cells, incubated for 3 or 4 days in the presence of compounds. The viability of the cells was assessed using the PERKIN ELMER ATPlite Luminescence Assay System.”

[3] = Hepatitis B virus, HepG2.117, 72 h

Row | SMILES | half-life at 1 μM [1] [h] | EC50 (HBV; [3]) [µM] | CC50 [2] [µM] | EC50 (HBV) [µM] | HLM Metabolism t1/2 ([1]; pooled human liver microsomes 0.5 mg/mL) [h]
1 | CNC(=O)[C@@H]1CN(C(C)c2ccc(N3CCCC3=O)nc2)C(=O)c2c3c(nn21)C[C@@H](C)N(C(=O)c1ccc(Cl)c(Cl)c1)C3 (single isomer, unassigned) [Compound 34A, (3R,7S)-2-(3,4-Dichlorobenzoyl)-N,3-dimethyl-10-oxo-9-((R*)-1-(6-(2-oxopyrrolidin-1-yl)pyridin-3-yl)ethyl)-1,2,3,4,7,8,9,10-octahydropyrido[4′,3′:3,4]pyrazolo[1,5-a]pyrazine-7-carboxamide] | 1.83 | 0.38 | > 50 | – | –
2 | CNC(=O)[C@@H]1CN([C@@H](C)c2cnc(C(F)(F)F)nc2)C(=O)c2c3c(nn21)C[C@@H](C)N(C(=O)c1ccc(Cl)c(Cl)c1)C3 [Compound 4B, (3R,7S)-2-(3,4-dichlorobenzoyl)-N,3-dimethyl-10-oxo-9-((S)-1-(2-(trifluoromethyl)pyrimidin-5-yl)ethyl)-1,2,3,4,7,8,9,10-octahydropyrido[4′,3′:3,4]pyrazolo[1,5-a]pyrazine-7-carboxamide] | > 3 | 0.16 | > 50 | – | –
3 | CNC(=O)[C@@H]1CN([C@@H](C)c2ccc(C(F)(F)F)nc2)C(=O)c2c3c(nn21)C[C@@H](C)N(C(=O)c1ccc(Cl)c(Cl)c1)C3 [Compound 13B, (3R,7S)-2-(3,4-dichlorobenzoyl)-N,3-dimethyl-10-oxo-9-((S)-1-(6-(trifluoromethyl)pyridin-3-yl)ethyl)-1,2,3,4,7,8,9,10-octahydropyrido[4′,3′:3,4]pyrazolo[1,5-a]pyrazine-7-carboxamide] | > 3 | 0.033 | 46.8 | – | –
4 | CC(c1ccc(C(F)(F)F)nc1)N1C[C@@H](C(=O)N(C)C)n2nc3c(c2C1=O)CN(C(=O)c1ccc(Cl)c(Cl)c1)[C@H](C)C3 (single isomer, unassigned) [Compound 8B, (3R,7S)-2-(3,4-dichlorobenzoyl)-N,N,3-trimethyl-10-oxo-9-((S*)-1-(6-(trifluoromethyl)pyridin-3-yl)ethyl)-1,2,3,4,7,8,9,10-octahydropyrido[4′,3′:3,4]pyrazolo[1,5-a]pyrazine-7-carboxamide] | > 3 | 0.071 | > 50 | – | –
5 | CNC(=O)[C@@H]1CN([C@@H](C)c2ccc(C(F)(F)F)nc2)C(=O)c2c3c(nn21)C[C@@H](C)N(C(=O)c1ccc(Cl)c(C(F)(F)F)c1)C3 [Compound 15B, (3R,7S)-2-(4-chloro-3-(trifluoromethyl)benzoyl)-N,3-dimethyl-10-oxo-9-((S)-1-(6-(trifluoromethyl)pyridin-3-yl)ethyl)-1,2,3,4,7,8,9,10-octahydropyrido[4′,3′:3,4]pyrazolo[1,5-a]pyrazine-7-carboxamide] | > 3 | 0.029 | 29.8 | – | –
6 | CNC(=O)[C@@H]1CN(C(C)c2ccc(-n3cncn3)cc2)C(=O)c2c3c(nn21)C[C@@H](C)N(C(=O)c1ccc(Cl)c(Cl)c1)C3 (single isomer, unassigned) [Compound 2A, (3R,7S)-9-((R*)-1-(4-(1H-1,2,4-triazol-1-yl)phenyl)ethyl)-2-(3,4-dichlorobenzoyl)-N,3-dimethyl-10-oxo-1,2,3,4,7,8,9,10-octahydropyrido[4′,3′:3,4]pyrazolo[1,5-a]pyrazine-7-carboxamide] | > 3 | – | > 50 | 0.042 | –
7 | CNC(=O)[C@@H]1CN(C(C)c2nc(C(F)(F)F)cs2)C(=O)c2c3c(nn21)C[C@@H](C)N(C(=O)c1ccc(Cl)c(Cl)c1)C3 (single isomer, unassigned) [Compound 44A, (3R,7S)-2-(3,4-Dichlorobenzoyl)-N,3-dimethyl-10-oxo-9-((R*)-1-(4-(trifluoromethyl)thiazol-2-yl)ethyl)-1,2,3,4,7,8,9,10-octahydropyrido[4′,3′:3,4]pyrazolo[1,5-a]pyrazine-7-carboxamide] | > 3 | 0.12 | > 50 | – | –
8 | CNC(=O)[C@@H]1CN(C(C)c2ccccn2)C(=O)c2c3c(nn21)C[C@@H](C)N(C(=O)c1ccc(Cl)c(Cl)c1)C3 (single isomer, unassigned) [Compound 37A, (3R,7S)-2-(3,4-Dichlorobenzoyl)-N,3-dimethyl-10-oxo-9-((R*)-1-(pyridin-2-yl)ethyl)-1,2,3,4,7,8,9,10-octahydropyrido[4′,3′:3,4]pyrazolo[1,5-a]pyrazine-7-carboxamide] | > 3 | 0.089 | > 50 | – | –
9 | CNC(=O)[C@@H]1CN([C@@H](C)c2cnc(C(F)(F)F)cn2)C(=O)c2c3c(nn21)C[C@@H](C)N(C(=O)c1ccc(Cl)c(Cl)c1)C3 [Compound 6B, (3R,7S)-2-(3,4-Dichlorobenzoyl)-N,3-dimethyl-10-oxo-9-((S)-1-(5-(trifluoromethyl)pyrazin-2-yl)ethyl)-1,2,3,4,7,8,9,10-octahydropyrido[4′,3′:3,4]pyrazolo[1,5-a]pyrazine-7-carboxamide] | > 3 | 0.092 | > 50 | – | –
10 | CC(c1ccc(OC(F)F)cc1)N1C[C@@H](C(=O)NC2CC2)n2nc3c(c2C1=O)CN(C(=O)c1ccc(Cl)c(C#N)c1)[C@H](C)C3 (single isomer, unassigned) [Compound 26A, (3R,7S)-2-(4-Chloro-3-cyanobenzoyl)-N-cyclopropyl-9-((R*)-1-(4-(difluoromethoxy)phenyl)ethyl)-3-methyl-10-oxo-1,2,3,4,7,8,9,10-octahydropyrido[4′,3′:3,4]pyrazolo[1,5-a]pyrazine-7-carboxamide] | – | – | 29.7 | 0.19 | >3
11 | CNC(=O)[C@@H]1CN(C(C)c2ccc(S(C)(=O)=O)cc2)C(=O)c2c3c(nn21)C[C@@H](C)N(C(=O)c1ccc(Cl)c(C(F)(F)F)c1)C3 (single isomer, unassigned) [Compound 19A, (3R,7S)-2-(4-Chloro-3-(trifluoromethyl)benzoyl)-N,3-dimethyl-9-((R*)-1-(4-(methylsulfonyl)phenyl)ethyl)-10-oxo-1,2,3,4,7,8,9,10-octahydropyrido[4′,3′:3,4]pyrazolo[1,5-a]pyrazine-7-carboxamide] | > 3 | – | > 50 | 0.12 | –
12 | CNC(=O)[C@@H]1CN([C@H](C)c2ccc(OC(F)F)cc2)C(=O)c2c3c(nn21)C[C@@H](C)N(C(=O)c1ccc(Cl)c(Cl)c1)C3 [Compound 16A, (3R,7S)-2-(3,4-dichlorobenzoyl)-9-((R)-1-(4-(difluoromethoxy)phenyl)ethyl)-N,3-dimethyl-10-oxo-1,2,3,4,7,8,9,10-octahydropyrido[4′,3′:3,4]pyrazolo[1,5-a]pyrazine-7-carboxamide] | > 3 | 0.021 | 40.4 | – | –
13 | C[C@@H]1Cc2nn3c(c2CN1C(=O)c1ccc(Cl)c(C#N)c1)C(=O)N([C@@H](C)c1ccc(OC(F)F)cc1)C[C@H]3C(=O)N(C)C [Compound 27B, (3R,7S)-2-(4-chloro-3-cyanobenzoyl)-9-((S)-1-(4-(difluoromethoxy)phenyl)ethyl)-N,N,3-trimethyl-10-oxo-1,2,3,4,7,8,9,10-octahydropyrido[4′,3′:3,4]pyrazolo[1,5-a]pyrazine-7-carboxamide] | > 3 | 0.046 | > 50 | – | –
14 | CNC(=O)[C@@H]1CN(C(C)c2ccc(C(F)(F)F)nc2)C(=O)c2c3c(nn21)C[C@@H](C)N(C(=O)c1ccc(Br)c(Cl)c1)C3 (single isomer, unassigned) [Compound 10B, (3R,7S)-2-(4-bromo-3-chlorobenzoyl)-N,3-dimethyl-10-oxo-9-((S*)-1-(6-(trifluoromethyl)pyridin-3-yl)ethyl)-1,2,3,4,7,8,9,10-octahydropyrido[4′,3′:3,4]pyrazolo[1,5-a]pyrazine-7-carboxamide] | > 3 | 0.019 | 46.8 | – | –
15 | CNC(=O)[C@@H]1CN([C@H](C)c2ccc(C(F)(F)F)nc2)C(=O)c2c3c(nn21)C[C@@H](C)N(C(=O)c1ccc(Cl)c(C(F)(F)F)c1)C3 [Compound 15A, (3R,7S)-2-(4-Chloro-3-(trifluoromethyl)benzoyl)-N,3-dimethyl-10-oxo-9-((R)-1-(6-(trifluoromethyl)pyridin-3-yl)ethyl)-1,2,3,4,7,8,9,10-octahydropyrido[4′,3′:3,4]pyrazolo[1,5-a]pyrazine-7-carboxamide] | > 3 | 0.086 | > 50 | – | –
